Results from US4304784A, “Composition and method for inhibiting platelet aggregation” (Takeda Chemical Industries, Ltd., priority 1978, dated 1981).
Read-outs that look alike come from different tables or passages of the source.

What was measured:
[1] = system: primary aggregation of platelets by ADP; assay: Inhibitory activity to the (primary) platelet aggregation induced by ADP, aggregation meter, rat PRP; type: cell-based; settings: average of 5 cases
Experimental: (a) Inhibitory activity to the platelet aggregation induced by ADP (adenosine diphosphate)
(§1) With a siliconized injection syringe wetted with heparin, a blood sample was taken from the descending artery of a rat and centrifuged at 4° C. and 1,000 r.p.m. for 10 minutes to obtain a platelet-rich plasma (PRP). The test drug solutions were prepared as follows. The test drug was dissolved in 0.02 M Tris-HCl buffer containing 1% of dimethylformamide and isotonicated with sodium (pH 7.4). To 0.4 ml of the above PRP was added 3.0 ml of the test drug solution, followed by the addition of 0.1 ml of 10^-4 M ADP. The resultant aggregation of platelets was measured with an aggregation meter [Nippon Bunko Medical K.K.]. The activity of the test drug was first assayed by determining the primary aggregation inhibitory effect in terms of inhibition rate (%) in relation to the maximum light transmittance of control PRP which is altered by ADP.
The inhibition rates shown are each an average of 5 cases.

[2] = system: ADP-induced platelet aggregation; assay: Inhibitory activity to the ADP-induced platelet aggregation measured by the platelet-counting-method, rat PRP; type: cell-based; settings: platelet counting (Coulter Counter)
Experimental: (b) Inhibitory activity to the ADP-induced platelet aggregation measured by the platelet-counting-method.
The test drug was dissolved in Na-isotonic 0.02 M Tris-HCl buffer (pH 7.4) containing 1% of dimethylformamide and to 1.5 ml of the test drug solution was added 0.5 ml of the rat-PRP. The mixture was incubated at 37° C. for one minute, followed by the addition of 1 ml of 5×10^-5 M-ADP-physiological saline, and further incubated for 45 seconds. To the solvent as mentioned above was added rat-PRP of the same volume as above. The mixture was incubated at 37° C. for one minute, which was used as the control preparation.
The rate of non-aggregation (inhibitory rate of aggregation) was assayed against the control by counting the number of the platelets in each sample as a single platelet by means of Coulter Counter and by determining the number of the platelets after the addition of ADP as non-aggregated platelets.

[3] = system: platelet aggregation by ADP; assay: Platelet aggregation inhibitory activity after oral administration to rats (blood sampled one hour after dosing); type: in vivo; settings: rat
Experimental: as §1
(2) The platelet aggregation inhibitory activity of Compound (I) (oral administration)
In one hour after oral administration of the test drug to rats, a blood sample was taken from each of the tested rats and the inhibition rate was assayed in accordance with the procedure as mentioned above (1)-a).

mice = settings: mouse, in vivo
Description: (3) The toxicity of compound (I)

[4] = system: thrombocyte (platelet) aggregation; assay: Inhibition activity of platelet aggregation in mammalian blood (general statement)

COc1ccc2c(c1)c(CC(=O)O)c(C)n2C(=O)c1ccc(Cl)cc1 [Indomethacin]
Rate of inhibition of the primary aggregation of platelets by ADP ([1]; 1.0 × 10^-4 mol. conc.): 8.0%
Rate of inhibition of the primary aggregation of platelets by ADP ([1]; 2.5 × 10^-4 mol. conc.): 31.5%
Rate of inhibition of the primary aggregation of platelets by ADP ([1]; 5.0 × 10^-4 mol. conc.): 71.4%
Rate of inhibition of the aggregation ([2]; 0.5 × 10^-4 mol. conc.): 8.18 ± 2.21%
Rate of inhibition of the aggregation ([2]; 1 × 10^-4 mol. conc.): 0.85 ± 0.20%
Rate of inhibition of the aggregation ([2]; 5 × 10^-4 mol. conc.): 64.66 ± 1.76%
Rate of inhibition of the platelet aggregation by ADP ([3]; 5 mg/kg body weight): 12.5%
Rate of inhibition of the platelet aggregation by ADP ([3]; 10 mg/kg body weight): 12.4%
Rate of inhibition of the platelet aggregation by ADP ([3]; 25 mg/kg body weight): 11.2%

CC(C(=O)O)c1cccc(C(=O)c2ccccc2)c1 (centres unmarked) [Ketoprofen]
Rate of inhibition of the primary aggregation of platelets by ADP ([1]; 1.0 × 10^-4 mol. conc.): 19.6%
Rate of inhibition of the primary aggregation of platelets by ADP ([1]; 2.5 × 10^-4 mol. conc.): 36.0%
Rate of inhibition of the primary aggregation of platelets by ADP ([1]; 5.0 × 10^-4 mol. conc.): 71.5%
Rate of inhibition of the platelet aggregation by ADP ([3]; 10 mg/kg body weight): 7.2%
Rate of inhibition of the platelet aggregation by ADP ([3]; 25 mg/kg body weight): 13.5%
Rate of inhibition of the platelet aggregation by ADP ([3]; 50 mg/kg body weight): 18.6%

CC(=O)Oc1ccccc1C(=O)O [Aspirin]
Rate of inhibition of the primary aggregation of platelets by ADP ([1]; 1.0 × 10^-4 mol. conc.): 10.6%
Rate of inhibition of the primary aggregation of platelets by ADP ([1]; 2.5 × 10^-4 mol. conc.): 28.8%
Rate of inhibition of the primary aggregation of platelets by ADP ([1]; 5.0 × 10^-4 mol. conc.): 60.4%
Rate of inhibition of the aggregation ([2]; 0.5 × 10^-4 mol. conc.): 6.51 ± 1.86%
Rate of inhibition of the aggregation ([2]; 1 × 10^-4 mol. conc.): -15.81 ± 5.65%
Rate of inhibition of the aggregation ([2]; 5 × 10^-4 mol. conc.): -7.11 ± 0.98%
Rate of inhibition of the platelet aggregation by ADP ([3]; 50 mg/kg body weight): 0%
Rate of inhibition of the platelet aggregation by ADP ([3]; 100 mg/kg body weight): 4.3%

O=C1c2ccccc2SC12CC2 [Compound (I), 3-oxo-2,3-dihydro[1]benzothiophene-2-spirocyclopropane]
Rate of inhibition of the primary aggregation of platelets by ADP ([1]; 0.5 × 10^-4 mol. conc.): 10.9%
Rate of inhibition of the primary aggregation of platelets by ADP ([1]; 0.75 × 10^-4 mol. conc.): 52.4%
Rate of inhibition of the primary aggregation of platelets by ADP ([1]; 1.0 × 10^-4 mol. conc.): 82.3%
Rate of inhibition of the primary aggregation of platelets by ADP ([1]; 2.5 × 10^-4 mol. conc.): 96.9%
Rate of inhibition of the primary aggregation of platelets by ADP ([1]; 5.0 × 10^-4 mol. conc.): 97.7%
Rate of inhibition of the aggregation ([2]; 0.5 × 10^-4 mol. conc.): 13.02 ± 2.20%
Rate of inhibition of the aggregation ([2]; 1 × 10^-4 mol. conc.): 16.09 ± 3.14%
Rate of inhibition of the aggregation ([2]; 5 × 10^-4 mol. conc.): 80.98 ± 2.92%
Rate of inhibition of the platelet aggregation by ADP ([3]; 5 mg/kg body weight): -3.6%
Rate of inhibition of the platelet aggregation by ADP ([3]; 10 mg/kg body weight): 12.7%
Rate of inhibition of the platelet aggregation by ADP ([3]; 25 mg/kg body weight): 20.0%
Rate of inhibition of the platelet aggregation by ADP ([3]; 50 mg/kg body weight): 21.9%
toxic reactions (mice; ip, 100 mg/kg): nor was any toxic reaction noted
toxic reactions (mice; po, 300 mg/kg): No toxic reactions were elicited
inhibition activity of thrombocyte (platelet) aggregation [4]: strong inhibition activity

CCOC(=O)COc1ccc2c(C)c(CCN(CC)CC)c(=O)oc2c1 [Carbochromen]
Rate of inhibition of the aggregation ([2]; 0.5 × 10^-4 mol. conc.): 5.12 ± 2.20%
Rate of inhibition of the aggregation ([2]; 1 × 10^-4 mol. conc.): 12.75 ± 2.26%
Rate of inhibition of the aggregation ([2]; 5 × 10^-4 mol. conc.): 15.95 ± 1.87%
